According to patent US20230174523A1, “BENZENESULFONAMIDE DERIVATIVES AS TRAP1 MODULATORS AND USES THEREOF” (Amathus Therapeutics, Inc., priority 2020, published 2023):
pEC50: −log10 of the molar value.

Target: T1, TRAP1 enzyme (Homo sapiens, UniProt Q12931)
T1 sequence (Q12931 60-704): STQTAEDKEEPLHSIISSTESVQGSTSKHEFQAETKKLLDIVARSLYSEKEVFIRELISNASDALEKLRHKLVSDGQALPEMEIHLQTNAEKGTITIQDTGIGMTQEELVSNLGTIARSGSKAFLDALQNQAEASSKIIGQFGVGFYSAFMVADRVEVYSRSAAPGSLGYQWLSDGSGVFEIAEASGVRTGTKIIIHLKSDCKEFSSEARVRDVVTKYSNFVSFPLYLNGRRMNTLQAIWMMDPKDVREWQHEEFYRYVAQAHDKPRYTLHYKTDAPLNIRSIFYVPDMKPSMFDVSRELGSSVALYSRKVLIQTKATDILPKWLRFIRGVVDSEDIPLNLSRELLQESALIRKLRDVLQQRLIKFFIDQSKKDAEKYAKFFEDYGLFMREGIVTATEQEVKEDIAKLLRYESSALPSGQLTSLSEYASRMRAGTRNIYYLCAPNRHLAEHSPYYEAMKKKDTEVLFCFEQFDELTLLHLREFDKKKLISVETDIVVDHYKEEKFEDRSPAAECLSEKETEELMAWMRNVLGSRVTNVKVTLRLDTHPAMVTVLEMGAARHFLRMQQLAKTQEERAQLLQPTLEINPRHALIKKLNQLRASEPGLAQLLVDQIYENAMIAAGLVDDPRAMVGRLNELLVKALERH
Assay: ADP Glo assay of TRAP1 ATPase activity
Assay type: biochemical
Settings: for pEC50: TRAP1 ATPase activation, 150 nM Trap1, 20 μM ATP, geometric mean, read-out: ADP GLO DRC: GeoMean EC50; for Emax: read-out: ADP GLO DRC: Mean Emax
Summary of the method: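 150 nM TRAP1 preincubated with compound (0.79–100 μM) 30 min at 37° C in Pipes pH 7.5 buffer (0.05 mM MgCl2, 40 mM KCl), then 20 μM ATP added for 60 min at 37° C. ADP quantified by ADP-Glo luminescence against ATP/ADP standard curve. Emax and EC50 from sigmoidal fit.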

| Structure (SMILES) | pEC50 | Emax [%] |
| --- | --- | --- |
| COc1ccc(NC(=O)c2cnc3ccoc3c2)cc1S(=O)(=O)Nc1c(C)cccc1C [Compound 1064] | 4.00 to 4.70 | 200 to 300 |
| COc1ccc(NC(=O)c2c(C)cc(Cl)nc2Cl)cc1S(=O)(=O)Nc1c(C)cccc1C [Compound 1037] | 4.00 to 4.70 | 160 to 199 |
| COc1ccc(NC(=O)c2ncc(OC(F)F)cc2Cl)cc1S(=O)(=O)Nc1c(C)cccc1C [Compound 1127] | 4.00 to 4.70 | 123 to 159 |
| COc1ccc(NC(=O)c2c[nH]c3cnccc23)cc1S(=O)(=O)Nc1c(C)cccc1C [Compound 1288] | 4.00 to 4.70 | 160 to 199 |
| COc1ccc(NC(=O)c2cc(C)nc3onc(C)c23)cc1S(=O)(=O)Nc1c(C)cccc1C [Compound 1226] | 4.00 to 4.70 | 123 to 159 |
| COc1ccc(NC(=O)c2cc(Br)cnc2C)cc1S(=O)(=O)Nc1c(C)cccc1C [Compound 1062] | 4.00 to 4.70 | 160 to 199 |
| CCc1ccc(NC(=O)c2cnn(-c3ccc(Cl)cc3)c2C)cc1S(=O)(=O)Nc1ccc(Cl)cc1 [Compound 1335] | 4.00 to 4.70 | 123 to 159 |
| COc1ccc(NC(=O)c2ccoc2C(F)(F)F)cc1S(=O)(=O)Nc1c(C)cccc1C [Compound 1122] | 4.00 to 4.70 | 160 to 199 |
| CCN1CCN(c2ccc(C(=O)Nc3ccc(OC)c(S(=O)(=O)Nc4c(C)cccc4C)c3)cc2)CC1 [Compound 1283] | 4.00 to 4.70 | 123 to 159 |
| COc1ccc(NC(=O)c2c(I)cnn2C)cc1S(=O)(=O)Nc1c(C)cccc1C [Compound 1088] | 4.00 to 4.70 | 160 to 199 |
| Cc1nc(C(=O)Nc2ccc(F)c(S(=O)(=O)Nc3ccc(Cl)cc3)c2)c(C)s1 [Compound 716] | 4.00 to 4.70 | 123 to 159 |
| COc1ccc(NC(=O)c2ccc(Cl)nc2C)cc1S(=O)(=O)Nc1c(C)cccc1C [Compound 1057] | 4.00 to 4.70 | 160 to 199 |

Continued, values first:

| pEC50 | Emax [%] | Structure (SMILES) |
| --- | --- | --- |
| > 5.00 | 160 to 199 | COc1ccc(NC(=O)c2cccc([C@H](F)c3cccc(F)c3)c2)cc1S(=O)(=O)Nc1c(C)cccc1C [Compound 1034] |
| > 5.00 | 200 to 300 | CCn1nc(C(C)C)cc1C(=O)Nc1ccc(OC)c(S(=O)(=O)Nc2c(C)cccc2C)c1 [Compound 1093] |
| > 5.00 | 160 to 199 | COc1ccc(NC(=O)c2cnc(-c3cccnc3OC)[nH]2)cc1S(=O)(=O)Nc1ccc(Cl)cc1 [Compound 1951] |
| > 5.00 | 123 to 159 | COc1ccc(NC(=O)c2csc(-c3ccccc3)n2)cc1S(=O)(=O)N(CC(O)CO)c1ccc(Cl)cc1 (centres unmarked) [Compound 2404] |
| 4.00 to 4.70 | 123 to 159 | Cn1c(=O)n(C)c2cc(C(=O)Nc3ccc(F)c(S(=O)(=O)Nc4ccc(Cl)cc4)c3)ccc21 [Compound 1261] |
| 4.70 to 5.00 | 123 to 159 | O=C(Nc1cccc(S(=O)(=O)Nc2ccc(Cl)cc2)c1)c1ncc(-c2ccccc2)o1 [Compound 438] |
| > 5.00 | 160 to 199 | COc1ccc(NC(=O)c2ccc(N3CCCC3)c(F)c2)cc1S(=O)(=O)Nc1c(C)cccc1C [Compound 1004] |
| > 5.00 | 160 to 199 | COc1ccc(NC(=O)c2ncc(-c3ccccc3)o2)cc1S(=O)(=O)Nc1c(C)ccc2ncccc12 [Compound 1605] |
| 4.70 to 5.00 | 123 to 159 | COc1ccc(-c2noc(C)c2C(=O)Nc2ccc(F)c(S(=O)(=O)Nc3ccc(Cl)cc3)c2)cc1 [Compound 838] |
| 4.70 to 5.00 | 160 to 199 | COc1ccc(NC(=O)c2ccc3ncsc3c2)cc1S(=O)(=O)Nc1c(C)cccc1C [Compound 1233] |
| 4.70 to 5.00 | 123 to 159 | O=C(Nc1ccc(F)c(S(=O)(=O)Nc2ccc(Cl)cc2)c1)c1cnc(Cl)cc1Cl [Compound 815] |
| 4.70 to 5.00 | 123 to 159 | COc1ccc(NC(=O)c2ncoc2C(C)C)cc1S(=O)(=O)Nc1ccc(Cl)cc1 [Compound 2476] |
| 4.70 to 5.00 | 123 to 159 | O=C(Nc1ccc(F)c(S(=O)(=O)Nc2ccc(Cl)cc2)c1)c1nccnc1C(F)(F)F [Compound 710] |
